# Reference: patent US10966426B2, “Herbicidal compositions comprising phenylpyrimidines” (BASF SE, priority 2016, dated 2021)
# What was measured:
# Format in all cases: in vivo
# [1] = system: Lolium multiflorum; assay: greenhouse pre-emergence treatment, LOLMU; conditions: 20 DAT, LOLMU
# Excerpt: (§1) The culture containers used were plastic pots containing loamy sand with approximately 3.0% of humus as substrate. The seeds of the test plants were sown separately for each species.
# (§2) For the pre-emergence treatment, the active compounds, suspended or emulsified in water, were applied directly after sowing by means of finely distributing nozzles. The containers were irrigated gently to promote germination and growth and subsequently covered with transparent plastic hoods until the plants had rooted. This cover caused uniform germination of the test plants unless this was adversely affected by the active compounds.
# (§3) Depending on the species, the plants were kept at 10-25° C. and 20-35° C., respectively.
# (§4) The test period extended over 2 to 4 weeks. During this time, the plants were tended and their response to the individual treatments was evaluated.
# (§5) Evaluation was carried out using a scale from 0 to 100. 100 means no emergence of the plants, or complete destruction of at least the above-ground parts, and 0 means no damage or normal course of growth. A good herbicidal activity is given at values of at least 70, and very good herbicidal activity is given at values of at least 85.
# (§6) The respective stated components A and B, and if appropriate, C were formulated as a 10% by weight strength emulsion concentrate and, with addition of the amount of solvent system, introduced into the spray liquor used for applying the active compound. In the examples, the solvent used was water.
# (§7) In the examples below, using the method of S. R. Colby (1967) “Calculating synergistic and antagonistic responses of herbicide combinations”, Weeds 15, p. 22ff., the value E, which is expected if the activity of the individual active compounds is only additive, was calculated. E=X+Y−(X·Y/100) where X=effect in percent using herbicide A at an application rate a; • Y=effect in percent using herbicide B at application rate b; • E=expected effect (in %) of herbicide A+herbicide B at application rates a+b.
# [2] = system: Helianthus annuus; assay: greenhouse pre-emergence treatment, HELAN; conditions: HELAN
# Excerpt: as §1, §2, §3, §4, §5, §6, §7
# [3] = system: Ambrosia elatior; assay: greenhouse pre-emergence treatment, AMBEL; conditions: AMBEL; for % activity: 21 DAT; for % activity, solo application: Table X2
# Excerpt: as §1, §2, §3, §4, §5, §6, §7
# [4] = system: Apera spica-venti; assay: greenhouse pre-emergence treatment, APESV; conditions: Apera spica-venti, 480 h, 20 DAT, flumioxazin WG 51% solo 3.75 gai/ha
# Excerpt: as §1, §2, §3, §4, §5, §6, §7
# [5] = system: Brachiaria decumbens; assay: greenhouse pre-emergence treatment, BRADC; conditions: 20 DAT, BRADC
# Excerpt: as §1, §2, §3, §4, §5, §6, §7
# [6] = system: Galium aparine; assay: greenhouse pre-emergence treatment, GALAP; conditions: GALAP; for % activity, solo application: Table X2
# Excerpt: as §1, §2, §3, §4, §5, §6, §7
# [7] = system: Polygonum convolvulus; assay: greenhouse pre-emergence treatment, POLCO; conditions: POLCO
# Excerpt: as §1, §2, §3, §4, §5, §6, §7
# [8] = system: Poa annua; assay: greenhouse post-emergence treatment, POAAN; conditions: solo, WG 75%, POAAN, 12.5 gai/ha, 20 DAT
# How it was run: (§8)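 Plants in loamy sand (~3.0% humus) were sprayed post-emergence at 3–15 cm height with actives in a water spray liquor made from 10% by weight emulsion concentrates. Plants were kept at 10-25° C. or 20-35° C. by species and rated over 2–4 weeks on a 0–100 scale (100 = complete destruction). Colby's E = X+Y−(X·Y/100) gave the expected additive effect.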
# [9] = system: Digitaria sanguinalis; assay: greenhouse pre-emergence treatment, DIGSA; conditions: DIGSA; for % activity: 21 DAT
# Excerpt: as §1, §2, §3, §4, §5, §6, §7
# [10] = system: Papaver rhoeas; assay: greenhouse post-emergence treatment, PAPRH; conditions: solo, WG 75%, PAPRH, 20 DAT
# How it was run: (§9)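 Post-emergence greenhouse spray on 3–15 cm plants, sown direct or transplanted a few days before treatment. Scored visually on a 0–100 scale after 2 to 4 weeks; expected additive effect computed by Colby: E=X+Y−(X·Y/100).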
# [11] = system: Digitaria sanguinalis; assay: greenhouse post-emergence treatment, DIGSA; conditions: solo, WG 75%, DIGSA, 100 gai/ha, 20 DAT
# How it was run: (§10)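 Scoring used a 0 to 100 scale, with 100 denoting no emergence or full destruction of at least the above-ground parts, recorded within a 2 to 4 week test period. Test plants grew in loamy sand containing about 3.0% humus at 10-25° C. or 20-35° C., after direct sowing or transplanting, and received water-based treatments post-emergence.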
# [12] = system: Matricaria chamomilla; assay: greenhouse post-emergence treatment, MATCH; conditions: solo, WG 75%, MATCH, 20 DAT
# How it was run: as §9
# [13] = system: Alopecurus myosuroides; assay: greenhouse post-emergence treatment, ALOMY; conditions: solo, WG 75%, ALOMY, 50 gai/ha, 20 DAT
# How it was run: as §10
# [14] = system: Bromus sterilis; assay: greenhouse pre-emergence treatment, BROST; conditions: solo, WG 75%, BROST, 50 gai/ha, 21 DAT
# Excerpt: as §1, §2, §3, §4, §5, §6, §7
# [15] = system: Setaria viridis; assay: greenhouse pre-emergence treatment, SETVI; conditions: SETVI; for % activity: 21 DAT
# Excerpt: as §1, §2, §3, §4, §5, §6, §7
# [16] = system: Stellaria media; assay: greenhouse pre-emergence treatment, STEME; conditions: 21 DAT
# Excerpt: as §1, §2, §3, §4, §5, §6, §7
# [17] = system: Bromus sterilis; assay: greenhouse post-emergence treatment, BROST; conditions: solo, WG 75%, BROST, 20 DAT
# How it was run: as §10
# [18] = system: Brachiaria decumbens; assay: greenhouse post-emergence treatment, BRADC; conditions: 20 DAT, BRADC
# How it was run: as §8
# [19] = system: Setaria viridis; assay: greenhouse post-emergence treatment, SETVI; conditions: 20 DAT, SETVI
# How it was run: as §10
# [20] = system: Avena fatua; assay: greenhouse pre-emergence treatment, AVEFA; conditions: AVEFA, trifludimoxazin solo 36 gai/ha, 20 DAT
# Excerpt: as §1, §2, §3, §4, §5, §6, §7
# [21] = solo, WG 75%, 12.5 gai/ha, 21 DAT
# [22] = solo, WG 75%, 25 gai/ha, 21 DAT
# [23] = solo, WG 75%, 50 gai/ha, 21 DAT
# [24] = 4.5 gai/ha (SC 500 g/l), 20 DAT, Table X2
# [25] = trifludimoxazin solo 18 gai/ha, 20 DAT
# [26] = trifludimoxazin solo 36 gai/ha, 20 DAT
# [27] = 4.5 gai/ha (SC 500 g/l), 20 DAT
structure (smiles),measurement,setting,value
C#CCN1C(=O)COc2cc(F)c(N3C(=O)C4=C(CCCC4)C3=O)cc21 [flumioxazin],inhibition at 30 g/ha,"[1]; Lolium multiflorum, 480 h, flumioxazin WG 51% solo 30 gai/ha",65%
same,inhibition at 30 g/ha,"[2]; Helianthus annuus, 480 h, 20 DAT, flumioxazin WG 51% solo 30 gai/ha",50%
same,"percent weed control (herbicidal activity, 0-100 scale) at 3.75 g/ha","[3]; Ambrosia artemisiifolia, 480 h, 20 DAT, flumioxazin WG 51% solo 3.75 gai/ha",0%
same,"percent weed control (herbicidal activity, 0-100 scale) at […]","[3]; Ambrosia artemisiifolia, 480 h, 20 DAT, flumioxazin WG 51% solo 7.5 gai/ha",0%
same,inhibition at 3.75 g/ha,[4],25%
same,"% herbicidal activity (weed control, 0-100 scale) at 15 g/ha","[5]; Urochloa decumbens, 480 h, flumioxazin WG 51% solo 15 gai/ha",40%
same,"% herbicidal activity (weed control, 0-100 scale) at […]","[6]; Galium aparine, 480 h, 20 DAT, flumioxazin WG 51% solo 7.5 gai/ha",0%
same,"% herbicidal activity (weed control, 0-100 scale) at 30 g/ha","[6]; Galium aparine, 480 h, 20 DAT, flumioxazin WG 51% solo 30 gai/ha",65%
same,inhibition at […],"[7]; Fallopia convolvulus, 480 h, 20 DAT, flumioxazin WG 51% solo 7.5 gai/ha",65%
O=C(Nc1ccc(F)cc1)c1cccc(Oc2cccc(C(F)(F)F)c2)n1 [picolinafen],% activity,[8],40%
same,% activity,[9]; picolinafen solo 12.5 gai/ha,0%
same,% activity,"[9]; solo, WG 75%, 25 gai/ha",30%
same,% activity,"[9]; solo, WG 75%, 50 gai/ha",60%
same,% activity,[10]; 12.5 gai/ha,35%
same,% activity,[10]; 25 gai/ha,40%
same,% activity,[10]; 50 gai/ha,55%
same,% activity,[10]; 100 gai/ha,80%
same,% activity,"[2]; picolinafen solo 12.5 gai/ha, 21 DAT",10%
same,% activity,"[2]; picolinafen solo 50 gai/ha, 21 DAT",15%
same,% activity,[2]; [21],10%
same,% activity,[2]; [22],20%
same,% activity,[2]; [23],15%
same,% activity,[11],75%
same,% activity,[12]; 12.5 gai/ha,0%
same,% activity,[12]; 25 gai/ha,20%
same,% activity,[12]; 50 gai/ha,20%
same,% activity,[3]; picolinafen solo 50 gai/ha,0%
same,% activity,"[3]; solo, WG 75%, 12.5 gai/ha",0%
same,% activity,"[3]; solo, WG 75%, 25 gai/ha",0%
same,% activity,"[3]; solo, WG 75%, 50 gai/ha",0%
same,% activity,[13],10%
same,% activity,[14],20%
same,% activity,[15]; picolinafen solo 25 gai/ha,70%
same,% activity,[15]; picolinafen solo 50 gai/ha,80%
same,% activity,[15]; picolinafen solo 100 gai/ha,85%
same,% activity,[15]; picolinafen solo 250 gai/ha,70%
same,% activity,"[15]; solo, WG 75%, 12.5 gai/ha",45%
same,% activity,"[15]; solo, WG 75%, 50 gai/ha",80%
same,% activity,[16]; picolinafen solo 25 gai/ha,20%
same,% activity,[16]; picolinafen solo 50 gai/ha,50%
same,% activity,[16]; picolinafen solo 100 gai/ha,65%
same,% activity,[17]; 12.5 gai/ha,0%
same,% activity,[17]; 25 gai/ha,0%
same,% activity,[17]; 50 gai/ha,10%
same,% activity,[17]; 100 gai/ha,20%
same,% activity,[18]; picolinafen WG 75% solo 25 gai/ha,35%
same,% activity,[18]; picolinafen WG 75% solo 50 gai/ha,50%
same,% activity,"[18]; solo, WG 75%, 25 gai/ha",35%
same,% activity,"[18]; solo, WG 75%, 50 gai/ha",50%
same,% activity,[6]; [21],0%
same,% activity,[6]; [22],0%
same,% activity,[7]; [23],20%
same,% activity,[19]; picolinafen WG 75% solo 12.5 gai/ha,30%
same,% activity,"[19]; solo, WG 75%, 12.5 gai/ha",30%
same,% activity,"[19]; solo, WG 75%, 50 gai/ha",80%
C#CCN1C(=O)C(F)(F)Oc2cc(F)c(-n3c(=O)n(C)c(=S)n(C)c3=O)cc21 [trifludimoxazin],"% activity, solo application",[9]; [24],50%
same,% activity,[1]; trifludimoxazin solo 36 gai/ha,75%
same,"% activity, solo application","[2]; 18 gai/ha (SC 500 g/l), 20 DAT, Table X2",0%
same,% activity,[2]; [25],0%
same,% activity,[2]; [26],30%
same,"% activity, solo application",[3]; [27],0%
same,"% activity, solo application","[3]; 9 gai/ha (SC 500 g/l), 20 DAT",50%
same,% activity,[20],50%
same,"% activity, solo application",[15]; [24],75%
same,"% activity, solo application","[5]; 9 gai/ha (SC 500 g/l), Table X2",45%
same,% activity,[5]; trifludimoxazin solo 18 gai/ha,50%
same,% activity,[5]; trifludimoxazin solo 36 gai/ha,80%
same,"% activity, solo application",[6]; [27],0%
same,"% activity, solo application","[6]; 9 gai/ha (SC 500 g/l), 20 DAT",0%
same,"% activity, solo application","[6]; 18 gai/ha (SC 500 g/l), 20 DAT",0%
same,"% activity, solo application","[6]; 36 gai/ha (SC 500 g/l), 20 DAT",40%
same,% activity,"[6]; trifludimoxazin solo 4.5 gai/ha, 20 DAT",0%
same,% activity,"[6]; trifludimoxazin solo 9 gai/ha, 20 DAT",0%
same,% activity,[6]; [25],0%
same,% activity,[6]; [26],40%
